Measurements from patent US20210228523A1, “MODULATORS OF SESTRIN-GATOR2 INTERACTION AND USES THEREOF” (Navitor Pharmaceuticals, Inc., priority 2017, published 2021).

How the values were obtained:
[1] = system: layer V pyramidal neurons in PFC; test: Dendritic spine density and morphology analysis (two-photon imaging); type: in vivo, rat; conditions: Example H; NV-5138 160 mg/kg oral single dose; 24 hr
Method: Study Design: Sixteen (16) male rats weighing between 175 and 200 g were randomized into 2 study groups (n=8), following a 5-day acclimation period. On study day 0, rats received a single dose of either NV vehicle (Veh, 0.5% methylcellulose/0.1% Tween-80) or NV-5138 (160 mg/kg), by oral gavage. On day 1, 24 hrs after dosing, rats were sacrificed, and brain slices were prepared and subjected to whole cell patch clamp recording of layer V pyramidal neurons in PFC.
Spine Density Analysis. Labeled neurons within layer V of anterior cingulate (Cg1) and prelimbic mPFC (Cg3) were imaged with a two-photon Ti:sapphire laser scanning system for analysis of spine density and morphology (810 nanometers; Mai Tai, Spectra Physics, Mountain View, Calif.) coupled to direct detection Radiance 2000 BioRad laser scanner (Zeiss Micromaging, Thornwood, N.Y.) mounted on a Olympus BX50WI microscope, using a 60× (0.9 numerical aperture) water-immersion objective. This includes the total number of spines on proximal and distal tufts of layer V neurons, as well as the spine head diameter, and indication of spine maturation. The length of apical tuft branch segments is determined within the 3D matrix of each Z-stack by using Neurolucida 10.2 (MicroBrightField). Spine density and spine head diameter analysis are done with the Autospine module of Neurolucida Explorer (version 10.2) on the raw image stacks (2-5 optical sections, 1 μm apart). Spine density and segmentation (beading) were sampled in three zones: tips of tuft branches as they approach the pial membrane, intermediate dendrites approximately midway between the pial membrane and bifurcation of apical trunk, and proximal tuft dendrites just distal to the bifurcation. Results were expressed in terms of total dendritic length, spine density, and segmentation density. Results were expressed in terms of spine density per 10 μm.

Male Sprague Dawley rats = test: Sucrose Preference Test (SPT) in non-stressed and chronic unpredictable stress rats; type: in vivo, rat; conditions: Example E, NV-5138 160 mg/kg oral single dose, 24 hrs after dosing
Method: Behavioral Analysis Using the Sucrose Preference Test (SPT): Rats were habituated to a palatable sucrose 1% sucrose solution for 48 hrs to avoid neophobia. Rats were treated with NV-5138 or Veh at the end of day 0 and the SPT was performed 24 hrs post-administration on day 1. For the SPT, rats were deprived of water for 6 hrs and exposed for 60 min to two bottles with equal volumes of 1% sucrose or water. The ratio of the volume of sucrose water consumed to total water consumed during the 1 hr test was defined as sucrose preference (e.g., a ratio of 1 would indicate the rat consumed only 1% sucrose, while a ratio of 0.5 would indicate that the rat drank equal amounts of 1% sucrose and water).
Chronic Unpredictable Stress (CUS) Conditions: Rats were exposed to a variable sequence of 12 unpredictable stressors, preventing habituation as described (Li, N. et al., Biol Psychiatry 69(8): 754-61 (2011)). […]
Study Design: Fifty-six (56) male rats weighing between 175 and 200 g were randomized into 4 study groups (n=14/group), following a 5-day acclimation period. […] Crude synaptosomes were prepared from the PFC and the synaptic proteins, GluR1 and PSD95 were quantitated by WB. […]

SMILES: CC(C)(C[C@H](N)C(=O)O)C(F)F [NV-5138]
- mushroom spine subtype density [1]: specific increase
- overall spine density in layer V pyramidal neuron dendrites [1]: significant increase
- thin spine subtype density [1]: specific increase
- SPT, mean ratio of 1% sucrose to water consumption (Male Sprague Dawley rats; CUS rats (Group 4)): 0.79
- SPT, mean ratio of 1% sucrose to water consumption (Male Sprague Dawley rats; non-stressed (NS) rats): 0.76
